Measured values taken from patent publication US6667327B2, “Pyridine amido derivatives” (Hoffmann-La Roche Inc., priority 2003, dated 2003).

Columns and labels:
human MAO-B = target: T1, human MAO-B (Homo sapiens, UniProt P27338); test: [3H]Ro 19-6327 binding assay for MAO-B on membranes of transfected EBNA cells; settings: 20 nM [3H]Ro 19-6327, 1 hour at 25° C., membranes of EBNA cells transfected with human MAO-B
T1 construct: expressed in transfected cells; host or cells: EBNA cells (transient transfection); cell membranes
T1 sequence (P27338 1-520): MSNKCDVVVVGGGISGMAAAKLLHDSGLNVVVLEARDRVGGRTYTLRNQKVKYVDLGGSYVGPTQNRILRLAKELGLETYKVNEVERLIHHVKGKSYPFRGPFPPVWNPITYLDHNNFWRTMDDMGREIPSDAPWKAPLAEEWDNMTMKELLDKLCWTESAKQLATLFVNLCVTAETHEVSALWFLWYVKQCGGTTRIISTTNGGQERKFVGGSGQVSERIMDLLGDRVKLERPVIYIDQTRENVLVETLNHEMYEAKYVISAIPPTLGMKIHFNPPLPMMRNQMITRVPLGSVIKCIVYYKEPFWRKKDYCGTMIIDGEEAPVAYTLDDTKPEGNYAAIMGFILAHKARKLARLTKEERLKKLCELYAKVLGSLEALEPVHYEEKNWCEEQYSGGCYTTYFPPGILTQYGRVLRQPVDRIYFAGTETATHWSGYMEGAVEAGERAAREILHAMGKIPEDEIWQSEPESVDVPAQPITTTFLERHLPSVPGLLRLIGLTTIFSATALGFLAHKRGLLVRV
Description: (§1) The cDNA's encoding human MAO-A and MAO-B were transiently transfected into EBNA cells using the procedure described by E.-J. Schlaeger and K. Christensen (Transient Gene Expression in Mammalian Cells Grown in Serum-free Suspension Culture; Cytotechnology, 15: 1-13, 1998). After transfection, cells were homogeneised by means of a Polytron homogeneiser in 20 mM Tris HCI buffer, pH 8.0, containing 0.5 mM EGTA and 0.5 mM phenylmethanesulfonyl fluoride. Cell membranes were obtained by centrifugation at 45,000×g and, after two rinsing step with 20 mM Tris HCI buffer, pH 8.0, containing 0.5 mM EGTA, membranes were eventually re-suspended in the above buffer and aliquots stored at −80° C. until use.
(§2) MAO-A and MAO-B activities were assayed by [^3H]Ro 41-1049 [tritiated N-(2-aminoethyl)-5-(3-fluorophenyl)-4-thiazole-carboxamide] and [^3H] Ro 19-6327 [tritiated N-(2-aminoethyl)-5-chloro-2-pyridinecarboxamide, [^3H] lazabemide] binding, respectively, following the methods described by Cesura et al. (Characterization of the binding of [^3H]Ro 41-1049 to the active site of monoamine oxidase-A, Molec. Pharmacol. 1990, 37, 358-366; [^3H]Ro 19-6327: a reversible ligand and affinity-labeling probe for monoamine oxidase-B, Eur. J. Pharmacol., 1989, 162, 457-465). Briefly, membrane aliquots were incubated in the presence of 20 nM [^3H]Ro 41-1049 (MAO-A assay) and [^3H]Ro 19-6327 (MAO-B assay) for 1 hour at 37° C. and 25° C., respectively, with or without various concentrations of the compounds, in a final volume of 0.2 ml. The incubation buffer consisted of 50 mM Tris, 130 mM NaCl, 5 mM KCI, 1 mM MgCl2, 0.5 mM EGTA, buffered to pH 7.4 with HCl. The assay was terminated by filtering the samples through GF/C filters (Unifilter-96, Canberra Packard). The radioactivity retained on the filters was eventually counted for radioactivity by means of a Packard Top-Count scintillation counter, after addition of Microscint 40 scintillation fluid (Canberra Packard). Non-specific binding was determined in the presence of 10 μM clorgyline for MAO-A or 10 μM L-deprenyl for MAO-B.
(§3) IC50 values, that is, the concentration of a test compound of formula I required to inhibit the MAO-B enzyme activity by 50%, were determined from inhibition curves obtained using nine inhibitor concentrations in duplicate, by fitting data to a four parameter logistic equation using a computer program.

human MAO-A = target: T2, human MAO-A (Homo sapiens, UniProt P21397); test: [3H]Ro 41-1049 binding assay for MAO-A on membranes of transfected EBNA cells; settings: 20 nM [3H]Ro 41-1049, 1 hour at 37° C., membranes of EBNA cells transfected with human MAO-A
T2 construct: expressed in transfected cells; host or cells: EBNA cells (transient transfection); cell membranes
T2 sequence (P21397 1-527): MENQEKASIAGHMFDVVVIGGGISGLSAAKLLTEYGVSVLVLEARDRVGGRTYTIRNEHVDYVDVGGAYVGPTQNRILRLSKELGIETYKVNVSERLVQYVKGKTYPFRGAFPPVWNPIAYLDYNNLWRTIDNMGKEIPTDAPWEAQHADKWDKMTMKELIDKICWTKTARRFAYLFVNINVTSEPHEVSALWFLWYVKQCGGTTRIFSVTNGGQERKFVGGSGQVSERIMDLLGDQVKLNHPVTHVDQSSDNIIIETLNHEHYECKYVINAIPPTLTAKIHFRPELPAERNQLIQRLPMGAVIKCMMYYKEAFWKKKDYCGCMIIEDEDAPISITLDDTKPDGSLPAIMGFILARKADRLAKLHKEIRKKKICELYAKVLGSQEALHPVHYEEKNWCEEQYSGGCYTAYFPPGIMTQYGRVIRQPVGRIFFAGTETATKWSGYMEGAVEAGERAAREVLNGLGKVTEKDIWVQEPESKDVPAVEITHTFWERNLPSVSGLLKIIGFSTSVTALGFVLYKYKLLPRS
Description: as §1, §2, §3

| Structure (SMILES) | IC50 (human MAO-B) | IC50 (human MAO-A) |
| --- | --- | --- |
| C[C@H](NC(=O)c1ccc(OCc2ccc(F)cc2)cn1)C(N)=O [Example 11, (S)-5-(4-Fluoro-benzyloxy)-pyridine-2-carboxylic Acid (1-carbamoyl-ethyl)-amide] | 70 nM | > 10 µM |
| NC(=O)CNC(=O)c1ccc(OCc2cccc(F)c2)nc1 [Example 2, N-Carbamoylmethyl-6-(3-fluoro-benzyloxy)-nicotinamide] | 30 nM | 4.15 µM |
| NC(=O)CNC(=O)c1ccc(OCc2ccc(F)c(F)c2)cn1 [Example 9, 5-(3,4-Difluoro-benzyloxy)-pyridine-2-carboxylic Acid Carbamoylmethyl-amide] | 43 nM | > 10 µM |
| NC(=O)CNC(=O)c1ccc(OCc2ccccc2)nc1 [Example 1, 6-Benzyloxy-N-carbamoylmethyl-nicotinamide] | 33 nM | > 10 µM |
| NC(=O)CNC(=O)c1ccc(OCc2ccc(F)cc2)cn1 [Example 8, 5-(4-Fluoro-benzyloxy)-pyridine-2-carboxylic Acid Carbamoylmethyl-amide] | 30 nM | > 10 µM |
| NC(=O)CNC(=O)c1ccc(OCc2cccc(F)c2)cn1 [Example 7, 5-(3-Fluoro-benzyloxy)-pyridine-2-carboxylic Acid Carbamoylmethyl-amide] | 28 nM | 9.16 µM |
